US20080275035A1 (priority 2005, published 2008)
Converted amounts (≈) assume the structure as drawn.

Tested on: not given
Assay: not given

| Compound | melting point [°C] |
| --- | --- |
| O=[N+]([O-])c1cn2c(n1)OC[C@@H](OCc1csc(-c3ccc(OC(F)(F)F)cc3)n1)C2 | 140 to 141 |
| O=[N+]([O-])c1cn2c(n1)OC[C@@H](OCc1nc3ccc(C(F)(F)F)cc3[nH]1)C2 | 120 to 121 |
| O=[N+]([O-])c1cn2c(n1)OC[C@@H](OCc1nc3ccc(OC(F)(F)F)cc3[nH]1)C2 | 99 to 100 |
| O=C(CO[C@@H]1COc2nc([N+](=O)[O-])cn2C1)Nc1ccc(OC(F)(F)F)cc1 | 157 to 158 |
| O=C(CO[C@@H]1COc2nc([N+](=O)[O-])cn2C1)NCc1ccc(OC(F)(F)F)cc1 | 110 to 111 |
| O=C(CO[C@@H]1COc2nc([N+](=O)[O-])cn2C1)Nc1nc(-c2ccc(OC(F)(F)F)cc2)cs1 | 120 to 121 |
| O=C(CO[C@@H]1COc2nc([N+](=O)[O-])cn2C1)N1CCN(c2ccc(OC(F)(F)F)cc2)CC1 | 77 to 79 |
| O=C(CO[C@@H]1COc2nc([N+](=O)[O-])cn2C1)N1CCN(c2ccc(F)cc2)CC1 | 73 to 74 |
| O=C(CO[C@@H]1COc2nc([N+](=O)[O-])cn2C1)N1CCN(c2ccc(C(F)(F)F)cn2)CC1 | 189 to 190 |
| O=C(CO[C@@H]1COc2nc([N+](=O)[O-])cn2C1)N1CCC(c2nc3cc(OC(F)(F)F)ccc3[nH]2)CC1 | 131 to 132 |
| O=[N+]([O-])c1cn2c(n1)OC[C@@H](OCc1ccc(-c3nc4cc(OC(F)(F)F)ccc4[nH]3)cc1)C2 | 98 to 99 |
| O=[N+]([O-])c1cn2c(n1)OCC(OCc1ccc(-c3nc4cc(OC(F)(F)F)ccc4o3)cc1)C2 (stereo not drawn) | 187 to 188 |
| O=[N+]([O-])c1cn2c(n1)OCC(OCc1ccc(OCc3ccc(F)cc3)cc1)C2 (stereo not drawn) | 150.2 to 150.9 |
| O=C(CO[C@@H]1COc2nc([N+](=O)[O-])cn2C1)Nc1nc2ccc(OC(F)(F)F)cc2s1 (stereo in doubt) | 89 to 90 |

Tested on: Mycobacterium tuberculosis H37Rv (ATCC 27294)
Assay: microbe, parasite or virus in culture
Assay type: cell-based

| Compound | MIC [µg/mL] |
| --- | --- |
| [H]/N=C(/N)N[C@H]1[C@H](O)[C@@H](O)[C@H](O[C@@H]2O[C@@H](C)[C@](O)(C=O)[C@H]2O[C@@H]2O[C@@H](CO)[C@H](O)[C@@H](O)[C@@H]2NC)[C@@H](N/C(N)=N\[H])[C@@H]1O [streptomycin] | 0.25 (≈ 0.43 µM) |
